In brackets after ≈: the same amount, converted by molar mass. Structures can show the parent of a compound that is named as a salt. Where two headings read alike, the source gives them in different places.
Experiments:
Escherichia coli 255 = assay: MIC on beta-lactamase producing strain Escherichia coli 255 (Table IV); format: cell-based; details: Escherichia coli 255, producing beta-lactamases; read-out: MIC
Method: (§1) To evaluate the stability of these products towards beta-lactamases, their MIC was determined on isogenic strains producing and not producing beta-lactamases.
(§2) The results are expressed in μg/ml in Table IV.

Pseudomonas RL 112 = assay: MIC, in vitro dilution method, Pseudomonas RL 112 (Table III); format: cell-based; details: RL112
Procedure, shortened: (§3)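 Bacteriostatic activity was determined in vitro by the dilution method against Gram-negative strains. Values are minimum inhibitory concentrations in μg/ml.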

Escherichia coli SOL 90 [1] = assay: MIC, in vitro dilution method, Escherichia coli SOL 90 (Table III); format: cell-based; details: SOL90; Escherichia coli SOL 90; dilution method; read-out: MIC
Procedure, shortened: as §3

Klebsiella RO 30 [2] = assay: MIC, in vitro dilution method, Klebsiella RO 30 (Table III); format: cell-based; details: RO30; Klebsiella RO 30; dilution method; read-out: MIC
Procedure, shortened: as §3

Klebsiella RO 30 [3] = assay: septicemic model of the mouse, Klebsiella RO 30 (Table V); format: in vivo; details: RO30, sc, 96 h, mouse septicemia, sub-cutaneous, 4 days observation, read-out: DE50 (the source's name)
Citrobacter RL 49 = assay: MIC, in vitro dilution method, Citrobacter RL 49 (Table III); format: cell-based; details: RL49; Citrobacter RL 49; dilution method; read-out: MIC
Procedure, shortened: as §3

Enterobacter RO 154 = assay: MIC, in vitro dilution method, Enterobacter RO 154 (Table III); format: cell-based; details: RO154; Enterobacter RO 154; dilution method; read-out: MIC
Procedure, shortened: as §3

Escherichia coli SOL 90 [4] = assay: septicemic model of the mouse, Escherichia coli SOL 90 (Table V); format: in vivo; details: SOL90, sc, 96 h, mouse septicemia, sub-cutaneous, 1 to 5 hours after inoculation, 4 days observation, read-out: DE50 (the source's name)
Method: The therapeutic effectiveness of the products was determined on the septicemic model of the mouse. the septicemia was initiated by the intraperitoneal innoculation of 0.5 ml of a suitable dilution of a suspension of the Escherichia coli SOL 90 strain. The products were administered in solution in a phosphate buffer pH 7.0 in a volume of 0.2 ml sub-cutaneously to batches of 10 mice, 1 to 5 hours after innoculation of the microorganism. After 4 days of observation in the course of which the mortality was noted, the 50% effective doses (DE 50) were calculated by the Muench and Reed method.

[5] = system: Serrtia liquefaciens SL 1326 S; assay: MIC on strain not producing beta-lactamase, Serratia liquefaciens SL 1326 S (Table IV); format: cell-based; details: SL1326S, not producing beta-lactamases
Method: as §1, §2

[6] = system: Proteus vulgaris RL 99 bis; assay: MIC, in vitro dilution method, Proteus vulgaris RL 99 bis (Table III); format: cell-based; details: RL99BIS
Procedure, shortened: as §3

[7] = system: Serrtia liquefaciens SL/326 A; assay: MIC on beta-lactamase producing strain Serratia liquefaciens SL/326 A (Table IV); format: cell-based
Method: as §1, §2

Escherichia coli 255/L.7 = assay: MIC on strain not producing beta-lactamase, Escherichia coli 255/L.7 (Table IV); format: cell-based
Method: as §1, §2

[8] = system: Proteus vulgaris GN 76/C.1; assay: MIC on beta-lactamase producing strain Proteus vulgaris GN 76/C.1 (Table IV); format: cell-based; details: GN76
Method: as §1, §2

Serratia RL 72 = assay: MIC, in vitro dilution method, Serratia RL 72 (Table III); format: cell-based; details: RL72
Procedure, shortened: as §3

[9] = system: Proteus vulgaris GN 76/C.1/3; assay: MIC on strain not producing beta-lactamase, Proteus vulgaris GN 76/C.1/3 (Table IV); format: cell-based; details: GN76, not producing beta-lactamases
Method: as §1, §2

[10] = Proteus vulgaris RL 99 bis, dilution method, read-out: MIC
[11] = Escherichia coli 255/L.7 *, not producing beta-lactamases, read-out: MIC
[12] = Proteus vulgaris GN 76/C.1, producing beta-lactamases, read-out: MIC

Row | Compound | MIC (Escherichia coli 255) [µg/mL] | MIC (Pseudomonas RL 112) [µg/mL] | MIC (Escherichia coli SOL 90 [1]) [µg/mL] | MIC (Klebsiella RO 30 [2]) [µg/mL] | ED50 (Klebsiella RO 30 [3]) [mg/kg] | MIC (Citrobacter RL 49) [µg/mL] | MIC (Enterobacter RO 154) [µg/mL] | ED50 (Escherichia coli SOL 90 [4]) [mg/kg] | MIC [5] [µg/mL] | MIC [6, 10] [µg/mL] | MIC [7] [µg/mL] | MIC (Escherichia coli 255/L.7; [11]) [µg/mL] | MIC [8, 12] [µg/mL] | MIC (Serratia RL 72) [µg/mL] | MIC [9] [µg/mL] | MIC (Escherichia coli 255/L.7; Escherichia coli, 255/L.7) [µg/mL] | MIC ([6]; Proteus vulgaris) [µg/mL] | MIC ([8]; Proteus vulgaris) [µg/mL]
1 | CC(C)(O/N=C(\C(=O)NC1C(=O)N2C(C(=O)O)=C(COC(=O)CCN)C[S+]([O-])C12)c1csc(N)n1)C(=O)O (stereo not drawn) [41 730] | 0.25 (≈ 0.437 µM) | 4 (≈ 6.99 µM) | 0.5 (≈ 0.873 µM) | 0.25 (≈ 0.437 µM) | 0.79 | 0.25 (≈ 0.437 µM) | 0.25 (≈ 0.437 µM) | 1.4 | ≤ 0.12 | ≤ 0.12 | 0.5 (≈ 0.873 µM) | ≤ 0.12 | 0.25 (≈ 0.437 µM) | 1 (≈ 1.75 µM) |  |  |  | 
2 | CC(C)(O/N=C(\C(=O)NC1C(=O)N2C(C(=O)O)=C(COC(=O)CCCN)C[S+]([O-])C12)c1csc(N)n1)C(=O)O (stereo not drawn) [41 854] | ≤ 0.12 | 4 (≈ 6.82 µM) | 0.25 (≈ 0.426 µM) | 0.25 (≈ 0.426 µM) | 0.19 | 0.5 (≈ 0.852 µM) | 2 (≈ 3.41 µM) | 0.23 | ≤ 0.12 | ≤ 0.12 | 0.25 (≈ 0.426 µM) | ≤ 0.12 | 0.25 (≈ 0.426 µM) | 0.5 (≈ 0.852 µM) |  |  |  | 
3 | CC(C)(O/N=C(\C(=O)NC1C(=O)N2C(C(=O)O)=C(COC(=O)CCCCCN)C[S+]([O-])C12)c1csc(N)n1)C(=O)O (stereo not drawn) [41 855] | ≤ 0.12 | 8 (≈ 13 µM) | 0.25 (≈ 0.407 µM) | 0.25 (≈ 0.407 µM) | 0.17 | 1 (≈ 1.63 µM) | 2 (≈ 3.25 µM) | 0.16 | ≤ 0.12 | ≤ 0.12 | 0.25 (≈ 0.407 µM) | ≤ 0.12 | ≤ 0.12 | 0.5 (≈ 0.813 µM) | ≤ 0.12 |  |  | 
4 | CC(C)(O/N=C(\C(=O)NC1C(=O)N2C(C(=O)O)=C(COC(=O)C3CCNCC3)C[S+]([O-])C12)c1csc(N)n1)C(=O)O (stereo not drawn) [41 862, 7-[2-(2-Amino 4-thiazolyl)2-(2-carboxy 2-propyloxyimino)acetamido]3-(4-piperidinyl)carbonyl oxymethyl 3-cepheme 4-carboxylic1β-S-oxide acid trifluoroacetate syn isomer] | ≤ 0.12 | 4 | 0.25 | 0.25 | 0.1 | 0.25 | 1 | 0.13 | ≤ 0.12 | ≤ 0.12 | ≤ 0.25 |  | ≤ 0.12 | 0.5 | ≤ 0.12 | 0.12 |  | 
5 | CC(C)(O/N=C(\C(=O)NC1C(=O)N2C(C(=O)O)=C(COC(=O)c3ccc(CN)cc3)C[S+]([O-])C12)c1csc(N)n1)C(=O)O (stereo not drawn) [42 042] | ≤ 0.12 | 4 (≈ 6.3 µM) | ≤ 0.12 | ≤ 0.12 |  | ≤ 0.12 | 1 (≈ 1.58 µM) | 0.05 | ≤ 0.12 | ≤ 0.12 | 0.25 (≈ 0.394 µM) | ≤ 0.12 | ≤ 0.12 | 2 (≈ 3.15 µM) | ≤ 0.12 |  |  | 
6 | CC(C)(CN)C(=O)OCC1=C(C(=O)O)N2C(=O)C(NC(=O)/C(=N\OC(C)(C)C(=O)O)c3csc(N)n3)C2[S+]([O-])C1 (stereo not drawn) [42 073] | 0.5 (≈ 0.832 µM) | 4 (≈ 6.66 µM) | 1 (≈ 1.66 µM) | 0.5 (≈ 0.832 µM) |  | 0.5 (≈ 0.832 µM) | 4 (≈ 6.66 µM) | 0.33 | ≤ 0.12 | 0.5 (≈ 0.832 µM) | 0.25 (≈ 0.416 µM) | 0.25 (≈ 0.416 µM) | 0.5 (≈ 0.832 µM) | 2 (≈ 3.33 µM) |  |  |  | 
7 | CC(C)(O/N=C(\C(=O)NC1C(=O)N2C(C(=O)O)=C(COC(=O)[C@H]3CC[C@H](CN)CC3)C[S+]([O-])C12)c1csc(N)n1)C(=O)O (stereo partly drawn) [42 117] | 0.125 (≈ 0.195 µM) | 4 (≈ 6.24 µM) | 0.25 (≈ 0.39 µM) | ≤ 0.12 |  | 0.25 (≈ 0.39 µM) | 1 (≈ 1.56 µM) | 0.11 | ≤ 0.06 | ≤ 0.12 | 0.12 (≈ 0.187 µM) | 0.06 (≈ 0.0936 µM) | ≤ 0.06 | 0.5 (≈ 0.78 µM) | ≤ 0.06 |  |  | 
8 | CC(C)(ON=C(C(=O)NC1C(=O)N2C(C(=O)O)=C(CSC(=O)C3CCNCC3)C[S+]([O-])C12)c1csc(N)n1)C(=O)O (stereo not drawn) [compound 41973] | 0.25 (≈ 0.398 µM) |  |  |  | 0.4 |  |  | 0.22 | ≤ 0.12 |  | 0.25 (≈ 0.398 µM) | 0.25 (≈ 0.398 µM) | 0.5 (≈ 0.795 µM) |  |  |  |  | 
9 | CC(C)(ON=C(C(=O)NC1C(=O)N2C(C(=O)O)=C(CSC(=O)c3ccc(CN)cc3)C[S+]([O-])C12)c1csc(N)n1)C(=O)O (stereo not drawn) [compound 42119] | 0.25 (≈ 0.384 µM) | 8 (≈ 12.3 µM) | 0.5 (≈ 0.768 µM) | 0.5 (≈ 0.768 µM) |  | 0.25 (≈ 0.384 µM) | 8 (≈ 12.3 µM) | 0.16 | ≤ 0.06 | ≤ 0.12 | 0.25 (≈ 0.384 µM) | 0.12 (≈ 0.184 µM) | 0.12 (≈ 0.184 µM) | 4 (≈ 6.15 µM) |  |  |  | 
10 | Cc1c(CN)cccc1C(=O)SCC1=C(C(=O)O)N2C(=O)C(NC(=O)C(=NOC(C)(C)C(=O)O)c3csc(N)n3)C2[S+]([O-])C1 (stereo not drawn) [compound 42535] | 0.125 (≈ 0.188 µM) | 8 (≈ 12 µM) | 0.5 (≈ 0.752 µM) | 0.25 (≈ 0.376 µM) |  | 0.25 (≈ 0.376 µM) | 0.5 (≈ 0.752 µM) |  | 0.125 (≈ 0.188 µM) |  | 0.0625 (≈ 0.094 µM) | ≤ 0.0312 |  | 1 (≈ 1.5 µM) | 0.125 (≈ 0.188 µM) |  | ≤ 0.125 | 0.0625 (≈ 0.094 µM)

From patent publication US4656166A, “Antibiotic compounds derived from cephalosporins, process for their production and pharmaceutical compositions” (Sanofi, priority 1983, dated 1987)
